Experimental findings from ChEMBL document CHEMBL3997840, “Kinase-independent phosphoramidate S1P1 receptor agonist benzyl ether derivatives” (Bioorg Med Chem Lett, 2017) are described below.

Data set [1] has as its system Serum. The data set can be described thus: Drug metabolism in human serum assessed as monophosphate formation by measuring parent compound half life at 3 mg by 31P NMR method. It counts as ADME, cell-free.
In data set [2] the target is Sphingosine 1-phosphate receptor 3 (Homo sapiens, UniProt Q99500). Put plainly: Agonist activity at human S1P3 receptor expressed in CHOK1 cell membranes by [35S]-GTPgammaS binding assay. For orientation: Binding of GTPγS marks nucleotide exchange on a G protein.
The next data set is filed under the species Homo sapiens. The data set can be described thus: Selectivity ratio of EC50 for human S1P3 receptor to EC50 for human S1P1 receptor.
A short description of data set [3]: Drug metabolism in mouse J1 cell derived neurons assessed as monophosphate formation at 3 mg after 4 days by mass spectroscopic method. As to conditions: j1 cell-derived neuron, 96 h. The data set is classed as ADME, cell-based.
A short description of data set [4]: Chemical stability in aqueous buffer at pH 8 at 3 mg measured every 12 mins over 13 hrs by 31P NMR method. The data set is classed as physicochemical. The settings on record: pH 8, 13 h.
Data set [5] in a line: Chemical stability in aqueous buffer at pH 1.5 at 3 mg measured every 12 mins over 13 hrs by 31P NMR method. As to conditions: pH 1.5, 13 h. It counts as physicochemical.
Data set [6] deals with Serum. Put plainly: Drug metabolism in human serum assessed as monophosphate formation at 3 mg after 12 hrs by mass spectroscopic method. The data set is classed as ADME, cell-free.
Data set [7] is described as follows: Drug metabolism assessed as carboxypeptidase Y (unknown origin)-mediated monophosphate formation at 3 mg measured every day over 2 weeks by mass spectroscopic method. It counts as ADME. As to conditions: human, 336 h.

pEC50: −log10 of the molar value.

Sphingosine 1-phosphate receptor 3, sequence (Q99500 whole entry): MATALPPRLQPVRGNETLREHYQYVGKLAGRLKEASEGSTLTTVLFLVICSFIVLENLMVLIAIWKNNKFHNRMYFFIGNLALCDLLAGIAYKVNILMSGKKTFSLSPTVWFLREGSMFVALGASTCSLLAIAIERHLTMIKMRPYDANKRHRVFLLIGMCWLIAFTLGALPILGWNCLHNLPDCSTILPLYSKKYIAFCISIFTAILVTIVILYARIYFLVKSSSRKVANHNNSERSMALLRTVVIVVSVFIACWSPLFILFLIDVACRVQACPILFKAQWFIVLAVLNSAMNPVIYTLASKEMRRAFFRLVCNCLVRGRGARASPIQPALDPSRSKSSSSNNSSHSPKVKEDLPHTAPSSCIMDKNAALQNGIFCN

Consider `Cc1ccc(CCCC(=O)c2ccc(COC[C@@](C)(N)COP(=O)(N[C@@H](C)C(=O)OC(C)C)Oc3ccccc3)cc2)cc1` (some centres undefined), for which the t1/2 in the data set on Serum [1] amounted to 14 h. On the same count and under the same terms, the same measure for `COC(=O)[C@H](C)NP(=O)(OC[C@](C)(N)COCc1cc(C)c(C(=O)CCCc2ccc(C)cc2)cc1C)Oc1ccccc1` (some centres undefined): 14 h.

The term pEC50 denotes −log10 of the EC50, conventionally taken in molar units. High values mean a small EC50, low ones a large EC50. Consider `Cc1ccc(CCCC(=O)c2cc(C)c(COC[C@@](C)(N)COP(=O)(O)O)cc2C)cc1`, for which, in data set [2], the negative-log EC50 (pEC50) is less than 4.70. For the same compound, in the data set listed under Homo sapiens, the Ratio EC50 was more than 3080. As to `Cc1ccc(CCCC(=O)c2ccc(COC[C@@](C)(N)COP(=O)(O)O)cc2)cc1`, the Ratio EC50 in the data set listed under Homo sapiens is 29. Consider `Cc1ccc(CCCC(=O)c2ccc(COC[C@@](C)(N)COP(=O)(N[C@@H](C)C(=O)OCc3ccccc3)Oc3ccccc3)cc2)cc1` (some centres undefined), for which the t1/2 in the data set on Serum [1] is 14 h. The same measure, in the same setting: the same measure for `Cc1ccc(CCCC(=O)c2cc(C)c(COC[C@@](C)(N)COP(=O)(N[C@@H](C)C(=O)OCc3ccccc3)Oc3ccccc3)cc2C)cc1` (some centres undefined): 14 h. `COC(=O)[C@H](C)NP(=O)(OC[C@](C)(N)COCc1ccc(C(=O)CCCc2ccc(C)cc2)cc1)Oc1ccccc1` (some centres undefined): the Drug metabolism entry (in data set [3]; in the data set with Serum [6]; in data set [7]) was “Metabolite_Detected” throughout. In addition, the Stability result in data set [4] and in data set [5] was “Stable” each time. Moreover, the t1/2 in the data set with Serum [1] turned out to be 14 h.

On to `Cc1ccc(CCCC(=O)c2cc(C)c(COC[C@@](C)(N)COP(=O)(N[C@@H](C)C(=O)OC(C)C)Oc3ccccc3)cc2C)cc1` (some centres undefined), for which the t1/2 with Serum [1] was determined as 14 h.
